US6780616B1, “Antibiotic caprazamycins and process for producing the same” (Zaidan Hojin Biseibutsu Kagaku Kenkyu Kai Corp., priority 1999, dated 2004)
Values after ≈ are worked out from the molar mass of the structure shown.

How the values were obtained:
[1] = test system: Mycobacterium avium kirchberg NIHJ-1605; assay: Antibacterial spectrum, serial dilution in Middlebrook 7H9 liquid medium; type: cell-based; parameters: unit not given here
Procedure: (§1) The antibacterial spectrum of each of caprazamycins A, B, C, E and F against Mycobacterium tuberculosis, and against atypical acid-fast bacteria, Mycobacterium avium kirchberg and Mycobacterium intracellulare, were measured in a Middlebrook 7H9 liquid medium by a serial dilution method. At the same time, antibacterial spectra of rifampicin (RMP) and isonicotinic acid hydrazide (INH) (as comparative drug) against the above-mentioned acid-fast bacteria were measured by the same serial dilution method.

[2] = test system: Mycobacterium intracellulare E-1 NIHJ-1618; assay: as above; type: cell-based; parameters: unit not given here
Procedure: as §1

[3] = test system: Mycobacterium tuberculosis H37Rv NIHJ-1633; assay: as above; type: cell-based; parameters: unit not given here
Procedure: as §1

[4] = test system: Mycobacterium smegmatis ATCC607 PM-R (paromomycin-resistant); assay: Antibacterial spectrum, serial dilution on 1% glycerin-supplemented nutrient agar; type: cell-based; conditions: Mycolicibacterium smegmatis, ATCC607, read-out: Minimum growth inhibitory concentration
Procedure: (§2) The antibacterial spectrum of caprazamycin A against a variety of microorganisms were measured on a 1% glycerin-supplemented nutrient agar medium by a serial dilution method according to the standard method as provided by Japanese Society of Chemotherapy.
(§3) The antibacterial spectrum of caprazamycin B against a variety of microorganisms were measured on a 1% glycerin-supplemented nutrient agar medium by a serial dilution method according to the standard method as provided by Japanese Society of Chemotherapy.
(§4) The antibacterial spectrum of caprazamycin C against a variety of microorganisms were measured on a 1% glycerin-supplemented nutrient agar medium by a serial dilution method according to the standard method as provided by Japanese Society of Chemotherapy.
(§5) The antibacterial spectrum of caprazamycin E against a variety of microorganisms were measured on a 1% glycerin-supplemented nutrient agar medium by a serial dilution method according to the standard method as provided by Japanese Society of Chemotherapy.
(§6) The antibacterial spectrum of caprazamycin F against a variety of microorganisms were measured on a 1% glycerin-supplemented nutrient agar medium by a serial dilution method according to the standard method as provided by Japanese Society of Chemotherapy.

[5] = test system: Mycobacterium smegmatis ATCC607 RFP-R (rifampicin-resistant); assay: as above; type: cell-based; conditions: Mycolicibacterium smegmatis, ATCC607, read-out: Minimum growth inhibitory concentration
Procedure: as §2, §3, §4, §5, §6

[6] = test system: Mycobacterium smegmatis ATCC607 CPM-R (capreomycin-resistant); assay: as above; type: cell-based; conditions: Mycolicibacterium smegmatis, ATCC607, read-out: Minimum growth inhibitory concentration
Procedure: as §2, §3, §4, §5, §6

[7] = test system: Mycobacterium smegmatis ATCC607; assay: as above; type: cell-based; conditions: Mycolicibacterium smegmatis, read-out: Minimum growth inhibitory concentration
Procedure: as §2, §3, §4, §5, §6

[8] = test system: Mycobacterium vaccae ATCC15483; assay: as above; type: cell-based; conditions: Mycolicibacterium vaccae, read-out: Minimum growth inhibitory concentration
Procedure: as §2, §3, §4, §5, §6

[9] = test system: Mycobacterium fortuitum; assay: as above; type: cell-based; conditions: Mycolicibacterium fortuitum, read-out: Minimum growth inhibitory concentration
Procedure: as §2, §3, §4, §5, §6

[10] = test system: Mycobacterium smegmatis ATCC607 KM-R (kanamycin-resistant); assay: as above; type: cell-based; conditions: Mycolicibacterium smegmatis, ATCC607, read-out: Minimum growth inhibitory concentration
Procedure: as §2, §3, §4, §5, §6

[11] = test system: Mycobacterium smegmatis ATCC607 ST-R (streptothricin-resistant); assay: as above; type: cell-based; conditions: Mycolicibacterium smegmatis, ATCC607, read-out: Minimum growth inhibitory concentration
Procedure: as §2, §3, §4, §5, §6

[12] = test system: Mycobacterium smegmatis ATCC607 SM-R (streptomycin-resistant); assay: as above; type: cell-based; conditions: Mycolicibacterium smegmatis, ATCC607, read-out: Minimum growth inhibitory concentration
Procedure: as §2, §3, §4, §5, §6

[13] = test system: Mycobacterium smegmatis ATCC607 VM-R (viomycin-resistant); assay: as above; type: cell-based; conditions: Mycolicibacterium smegmatis, ATCC607, read-out: Minimum growth inhibitory concentration
Procedure: as §2, §3, §4, §5, §6

[14] = test system: Mycobacterium phlei; assay: as above; type: cell-based; conditions: Mycolicibacterium phlei, read-out: Minimum growth inhibitory concentration
Procedure: as §2, §3, §4, §5, §6

[15] = test system: Staphylococcus aureus No.5 (methicillin-resistant); assay: Antibacterial spectrum, serial dilution on Müller-Hinton agar; type: cell-based; conditions: read-out: Minimum growth inhibitory concentration
[16] = test system: mice (ICR type, 4 weeks-aged, male); assay: Toxicity in mice after intravenous administration; type: in vivo; conditions: intravenously, 75 mg/kg
Excerpt: The dose of a caprazamycin of the general formula (I) or a salt thereof as an active ingredient in the composition of this invention may depend upon the nature of bacterial infections to be treated, a purpose of the therapeutic treatment, degree of the patient's conditions and so on. However, an optimal dose of a caprazamycin can be decided by experts through suitable preliminary tests.

[17] = test system: Staphylococcus aureus No.17 (methicillin-resistant); assay: Antibacterial spectrum, serial dilution on Müller-Hinton agar; type: cell-based; conditions: read-out: Minimum growth inhibitory concentration
[18] = test system: Staphylococcus aureus TY-04282 (methicillin-resistant); assay: as above; type: cell-based; conditions: read-out: Minimum growth inhibitory concentration
[19] = test system: Escherichia coli NIHJ; assay: as above; type: cell-based; conditions: read-out: Minimum growth inhibitory concentration
[20] = test system: Staphylococcus aureus MS16526 (methicillin-resistant); assay: as above; type: cell-based; conditions: read-out: Minimum growth inhibitory concentration
[21] = test system: Bacillus subtilis NRRL B-558; assay: as above; type: cell-based; conditions: NRRLB558, read-out: Minimum growth inhibitory concentration
[22] = test system: Bacillus anthracis; assay: microbe, parasite or virus in culture; type: cell-based; conditions: read-out: Minimum growth inhibitory concentration
[23] = test system: Bacillus subtilis PCI1219; assay: Antibacterial spectrum, serial dilution on Müller-Hinton agar; type: cell-based; conditions: read-out: Minimum growth inhibitory concentration
[24] = test system: Staphylococcus aureus Smith; assay: as above; type: cell-based; conditions: read-out: Minimum growth inhibitory concentration
Procedure: (§7) The antibacterial spectrum of caprazamycin B against a variety of microorganisms other than the microorganisms as specified in Table 2 were measured on Müller-Hinton agar medium by a serial dilution method according to the standard method as provided by Japanese Society of Chemotherapy.

[25] = test system: Staphylococcus aureus FDA209P; assay: as above; type: cell-based; conditions: read-out: Minimum growth inhibitory concentration
Procedure: as §7

[26] = test system: Micrococcus luteus FDA16; assay: as above; type: cell-based; conditions: read-out: Minimum growth inhibitory concentration
Procedure: as §7

[27] = test system: Bacillus cereus ATCC10702; assay: as above; type: cell-based; conditions: read-out: Minimum growth inhibitory concentration
Procedure: as §7

[28] = test system: Corynebacterium bovis 1810; assay: as above; type: cell-based; conditions: read-out: Minimum growth inhibitory concentration
Procedure: as §7

[29] = test system: Micrococcus luteus PCI1001; assay: as above; type: cell-based; conditions: read-out: Minimum growth inhibitory concentration
Procedure: as §7

[30] = test system: Staphylococcus aureus MS9610 (multiple drug-resistant); assay: as above; type: cell-based; conditions: read-out: Minimum growth inhibitory concentration

Compound	Minimum Inhibitory Concentration of Compound tested against Test Bacteria [1]	Minimum Inhibitory Concentration of Compound tested against Test Bacteria [2]	Minimum Inhibitory Concentration of Compound tested against Test Bacteria [3]	MIC [4] [mg/L]	MIC [5] [mg/L]	MIC [6] [mg/L]	MIC [7] [mg/L]	MIC [8] [mg/L]	MIC [9] [mg/L]	MIC [10] [mg/L]	MIC [11] [mg/L]	MIC [12] [mg/L]	MIC [13] [mg/L]	MIC [14] [mg/L]	further results
CCCCCCCCCCCCCC(CC(=O)OC1CN(C)C(C(OC2OC(CN)C(O)C2O)C2OC(n3ccc(=O)[nH]c3=O)C(O)C2O)C(=O)N(C)C1C(=O)O)OC(=O)CC(C)CC(=O)OC1OC(C)C(OC)C(OC)C1OC (stereo not shown) [Caprazamycin A, caprazamycin A]	<0.025	0.78	1.56	1.56 (≈ 1.36 µM)	0.78 (≈ 0.68 µM)	0.78 (≈ 0.68 µM)	1.56 (≈ 1.36 µM)	0.2 (≈ 0.174 µM)	6.25 (≈ 5.45 µM)	0.78 (≈ 0.68 µM)	0.78 (≈ 0.68 µM)	1.56 (≈ 1.36 µM)	0.78 (≈ 0.68 µM)	1.56 (≈ 1.36 µM)	–
COC1C(C)OC(OC(=O)CC(C)CC(=O)OC(CCCCCCCCCCC(C)C)CC(=O)OC2CN(C)C(C(OC3OC(CN)C(O)C3O)C3OC(n4ccc(=O)[nH]c4=O)C(O)C3O)C(=O)N(C)C2C(=O)O)C(OC)C1OC (stereo not shown) [Caprazamycin B, caprazamycin B]	<0.025	0.78	1.56	1.56 (≈ 1.36 µM)	3.13 (≈ 2.73 µM)	1.56 (≈ 1.36 µM)	3.13 (≈ 2.73 µM)	0.39 (≈ 0.34 µM)	50 (≈ 43.6 µM)	1.56 (≈ 1.36 µM)	1.56 (≈ 1.36 µM)	3.13 (≈ 2.73 µM)	1.56 (≈ 1.36 µM)	3.13 (≈ 2.73 µM)	MIC [15]: 3.13 mg/L (≈ 2.73 µM); Toxicity [16]: did not exhibit any toxicity; MIC [17]: 6.25 mg/L (≈ 5.45 µM); MIC [18]: 6.25 mg/L (≈ 5.45 µM); MIC [19]: 100 mg/L (≈ 87.2 µM); MIC [20]: 3.13 mg/L (≈ 2.73 µM); MIC [21]: 12.5 mg/L (≈ 10.9 µM); MIC [22]: 0.78 mg/L (≈ 0.68 µM); MIC [23]: 6.25 mg/L (≈ 5.45 µM); MIC [24]: 3.13 mg/L (≈ 2.73 µM); MIC [25]: 1.56 mg/L (≈ 1.36 µM); MIC [26]: 3.13 mg/L (≈ 2.73 µM); MIC [27]: 3.13 mg/L (≈ 2.73 µM); MIC [28]: 3.13 mg/L (≈ 2.73 µM); MIC [29]: 3.13 mg/L (≈ 2.73 µM); MIC [30]: 3.13 mg/L (≈ 2.73 µM)
CCCCCCCCCCCCC(CC(=O)OC1CN(C)C(C(OC2OC(CN)C(O)C2O)C2OC(n3ccc(=O)[nH]c3=O)C(O)C2O)C(=O)N(C)C1C(=O)O)OC(=O)CC(C)CC(=O)OC1OC(C)C(OC)C(OC)C1OC (stereo not shown) [Caprazamycin C, caprazamycin C]	<0.025	0.78	0.78	1.56 (≈ 1.38 µM)	1.56 (≈ 1.38 µM)	1.56 (≈ 1.38 µM)	1.56 (≈ 1.38 µM)	0.39 (≈ 0.344 µM)	12.5 (≈ 11 µM)	0.78 (≈ 0.689 µM)	1.56 (≈ 1.38 µM)	1.56 (≈ 1.38 µM)	1.56 (≈ 1.38 µM)	1.56 (≈ 1.38 µM)	–
CCCCCCCCCCCC(CC(=O)OC1CN(C)C(C(OC2OC(CN)C(O)C2O)C2OC(n3ccc(=O)[nH]c3=O)C(O)C2O)C(=O)N(C)C1C(=O)O)OC(=O)CC(C)CC(=O)OC1OC(C)C(OC)C(OC)C1OC (stereo not shown) [Caprazamycin E, caprazamycin E]	<0.025	0.78	0.78	1.56 (≈ 1.4 µM)	0.78 (≈ 0.698 µM)	0.39 (≈ 0.349 µM)	1.56 (≈ 1.4 µM)	0.39 (≈ 0.349 µM)	12.5 (≈ 11.2 µM)	0.78 (≈ 0.698 µM)	0.78 (≈ 0.698 µM)	1.56 (≈ 1.4 µM)	0.39 (≈ 0.349 µM)	1.56 (≈ 1.4 µM)	–
COC1C(C)OC(OC(=O)CC(C)CC(=O)OC(CCCCCCCCC(C)C)CC(=O)OC2CN(C)C(C(OC3OC(CN)C(O)C3O)C3OC(n4ccc(=O)[nH]c4=O)C(O)C3O)C(=O)N(C)C2C(=O)O)C(OC)C1OC (stereo not shown) [Caprazamycin F, caprazamycin F]	0.1	1.56	–	0.78 (≈ 0.698 µM)	0.78 (≈ 0.698 µM)	0.78 (≈ 0.698 µM)	1.56 (≈ 1.4 µM)	0.78 (≈ 0.698 µM)	12.5 (≈ 11.2 µM)	0.78 (≈ 0.698 µM)	0.78 (≈ 0.698 µM)	1.56 (≈ 1.4 µM)	1.56 (≈ 1.4 µM)	1.56 (≈ 1.4 µM)	–
